Experiment [1] addresses T1, CB1 cannabinoid receptor (Rattus norvegicus, UniProt P20272).
T1 construct: membranes were prepared from rat forebrain membranes; from tissue; host or cells: rat forebrain
As to the kind of experiment: CB1 receptor binding, [3H]CP-55,940 displacement. The conditions noted are these: rat forebrain membranes. On the procedure:
Some inventive analogs were tested for CB2 receptor binding affinity and for CB1 receptor affinity (to determine selectivity). […] The lower the Ki value, the higher the binding affinity. […] For the CB1 receptor binding studies, membranes were prepared from rat forebrain membranes according to the procedure of P. R. Dodd et al, A Rapid Method for Preparing Synaptosomes: Comparison with Alternative Procedures, Brain Res., 107-118 (1981). The binding of the novel analogues to the CB1 cannabinoid receptor was assessed as described in W. A. Devane et al, Determination and Characterization of a Cannabinoid Receptor in a Rat Brain, Mol. Pharmacol., 34, 605-613 (1988) and A. Charalambous et al, 5′-azido Δ^8-THC: A Novel Photoaffinity Label for the Cannabinoid Receptor, J. Med. Chem., 35, 3076-3079 (1992) with the following changes. The above articles are incorporated by reference herein.
Membranes, previously frozen at −80° C., were thawed on ice. To the stirred suspension was added three volumes of TME (25 mM Tris-HCl buffer, 5 mM MgCl2 and 1 mM EDTA) at a pH 7.4. The suspension was incubated at 4° C. for 30 min. At the end of the incubation, the membranes were pelleted and washed three times with TME.
(§1) The treated membranes were subsequently used in the binding assay described below. Approximately 30 μg of membranes were incubated in silanized 96-well microtiter plate with TME containing 0.1% essentially fatty acid-free bovine serum albumin (BSA), 0.8 nM [^3H] CP-55,940, and various concentrations of test materials in a final volume of 200 μL. The assays were incubated for 1 hour at 30° C. and then immediately filtered using Packard Filtermate 196 harvester and Whatman GF/C filterplates and washed with wash buffer (TME) containing 0.5% BSA. Radioactivity was detected using MicroScint 20 scintillation cocktail added directly to the dried filterplates, and the filterplates were counted using a Packard Instruments Top-Count. Nonspecific binding was assessed using 100 nM CP-55,940. Data collected from three independent experiments performed with duplicate determinations was normalized between 100% and 0% specific binding for [^3H] CP-55,940, determined using buffer and 100 nM CP-55,940. The normalized data was analyzed using a 4-parameter nonlinear logistic equation to yield IC50 values.

The subject of experiment [2] is anandamide transporter. As to the kind of experiment: [3H]Anandamide transporter competition assay. The format is cell-based. The conditions noted are these: human CCF-STG1 astrocytoma cells, 10 nM [3H]anandamide. On the procedure: Human CCF-STG1 astrocytoma cells (American Type Culture collection) were grown in RPMI1640 culture medium containing 2 mM L-glutamine, 4.5 g/L glucose, 10 mM HEPES, and 1.0 mM sodium pyruvate, 10% FBS, cultures at 37° C. with 5% CO2. For standard competition assays, confluent cells grown in 24-well plates were rinsed and preincubated for 10 min at 37° C. in assay buffer (Hank's Balanced Salt Solution containing 0.1% DMSO, 10 mM HEPES) plus test compounds (at their final concentrations of 0.01-100 μM). After having discarded the preincubation media, the cells were incubated for 4 min in 0.2 ml assay buffer containing 10 nM [^3H] anandamide (137.6 Ci/mmol, New England Nuclear) plus test compounds. Reactions were stopped by removing the incubation media and rinsing the cells three times with 0.5 ml of ice-cold HBSS buffer containing 0.1% fatty acid-free Bovine Serum Albumin (sigma). Radioactive material in Triton X-100 cell extracts was measured by liquid scintillation counting. A minimum of three independent experiments conducted in six replicates was used to define the concentration needed to produce half-maximal inhibition (IC50) for each compound. IC50 values were obtained by nonlinear regression fitting of the data, using the PRIZM software package. Data are expressed as mean±SEM.

Experiment [3] concerns the target T2, CB2 receptor (Mus musculus, UniProt P47936).
T2 construct: membranes were prepared from frozen mouse spleen; from tissue; host or cells: mouse spleen
As to the kind of experiment: CB2 receptor binding, [3H]CP-55,940 displacement. The conditions noted are these: mouse spleen membranes. On the procedure: as §1
For the CB2 receptor binding studies, membranes were prepared from frozen mouse spleen essentially according to the procedure of P. R. Dodd et al, A Rapid Method for Preparing Synaptosomes: Comparison with Alternative Procedures, Brain Res., 226, 107-118 (1981) which is incorporated by reference herein. Silanized centrifuge tubes were used throughout to minimize receptor loss due to adsorption. The CB2 binding assay was conducted in the same manner as for the CB1 binding assay. The binding affinities (Ki) were also expressed in nanomoles (nM).

In experiment [4] the target is T3, Mag-lipase (Rattus norvegicus, UniProt Q8R431).
T3 construct: supernatant from final spin in the anandamide amidase preparation; from tissue; host or cells: supernatant (soluble fraction) of the anandamide amidase preparation, rat brain by the cited procedure
T3 sequence (Q8R431 1-303): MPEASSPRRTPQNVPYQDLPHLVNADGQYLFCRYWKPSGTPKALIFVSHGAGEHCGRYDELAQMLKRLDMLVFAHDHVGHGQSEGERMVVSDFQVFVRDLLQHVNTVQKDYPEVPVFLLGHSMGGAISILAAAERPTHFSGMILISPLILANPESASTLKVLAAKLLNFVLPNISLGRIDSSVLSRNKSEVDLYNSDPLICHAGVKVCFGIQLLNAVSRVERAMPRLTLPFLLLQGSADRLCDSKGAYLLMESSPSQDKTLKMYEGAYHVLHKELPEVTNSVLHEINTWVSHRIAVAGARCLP
As to the kind of experiment: Inhibition of MAG-lipase: 2-AG metabolism to arachidonic acid. Conditions: 20 min, 30 nmoles compound with 30 nmoles 2-AG, 30 μg enzyme, 300 μL. The format is biochemical. As for the experimental part: All compound solutions were made to a concentration of 10 mM in DMSO. Three tests were performed on each compound: hydrolysis, to determine the stability of the compound in assay conditions without the enzyme present; metabolism, to determine the stability of the compound with the enzyme present; and inhibition of 2-Arachidonoyl glycerol (native substrate) metabolism to arachidonic acid.
The inhibition of 2-AG metabolism was measured by mixing 30 nmoles of the compound with 30 nmoles 2-AG, and 30 μg enzyme preparation in TME buffer (final volume of 300 μL). Again the reaction mixture was treated in the same manner as described above and the concentrations of 2-AG and AA were calculated using external standards. Percent inhibition was calculated using the following equation: % Inhib.=(AA20-AA0)i/(AA20-AA0)s where (AA20-AA0)i is the amount of arachidonic acid formed over 20 minutes from 2-AG with the inhibitor present and (AA20-AA0)s is the amount of arachidonic acid formed over 20 minutes from 2-AG when the inhibitor is not present. […] The reaction mixtures were treated as described above and the amount of AA formed was calculated. The software package GraphPad Prism was utilized to calculate IC50 and Ki. HPLC Conditions:
Chromatographic separation was achieved using an Ultrasphere ODS Pre-column (4.6×45 mm) from Beckman. Hardware consisted of a Waters Millennium HPLC system with a 20 μL injection loop. The mobile phase consisted of 8.5% o-phosphoric acid:acetonitrile (3:7), run isocratically at a rate of 1 mL/min and detection at 204 nm. The total run time was 8 minutes with 2-AG eluting at 3.0 minutes and AA at 6.0 minutes.

This note sets out measurements from patent US8202893B2, “Cannabinergic lipid ligands” (University of Connecticut, priority 2004, dated 2012).

SMILES strings stand for the structures. Where two headings read alike, the source gives them in different places.

T1 sequence (P20272 whole entry): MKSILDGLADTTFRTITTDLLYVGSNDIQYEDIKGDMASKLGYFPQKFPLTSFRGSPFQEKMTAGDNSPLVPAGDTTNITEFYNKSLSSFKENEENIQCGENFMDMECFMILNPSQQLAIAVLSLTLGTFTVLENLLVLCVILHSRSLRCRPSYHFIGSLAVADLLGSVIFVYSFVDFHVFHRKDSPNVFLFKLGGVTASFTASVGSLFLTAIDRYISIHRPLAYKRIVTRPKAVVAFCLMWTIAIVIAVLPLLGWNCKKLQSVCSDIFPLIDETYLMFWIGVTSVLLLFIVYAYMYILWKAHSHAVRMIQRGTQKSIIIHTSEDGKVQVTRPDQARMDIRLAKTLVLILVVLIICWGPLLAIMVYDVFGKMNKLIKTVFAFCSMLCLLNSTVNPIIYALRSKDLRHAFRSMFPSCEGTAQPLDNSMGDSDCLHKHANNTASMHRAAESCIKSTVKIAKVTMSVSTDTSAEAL
T2 sequence (P47936 whole entry): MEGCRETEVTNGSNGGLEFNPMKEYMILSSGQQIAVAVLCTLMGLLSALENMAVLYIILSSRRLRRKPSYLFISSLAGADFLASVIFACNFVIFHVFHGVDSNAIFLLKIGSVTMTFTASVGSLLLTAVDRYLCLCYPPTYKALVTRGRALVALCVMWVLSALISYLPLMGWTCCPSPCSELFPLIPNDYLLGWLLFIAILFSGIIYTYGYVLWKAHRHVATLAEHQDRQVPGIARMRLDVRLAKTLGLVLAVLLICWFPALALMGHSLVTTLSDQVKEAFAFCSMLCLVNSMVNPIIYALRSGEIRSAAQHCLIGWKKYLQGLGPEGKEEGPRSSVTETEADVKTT

As for `CCCCC/C=C\C/C=C\C/C=C\C/C=C\CCCCOC(=O)Nc1cccnc1` [Compound B11], the Ki in experiment [1] (with PMSF (second value of cell), read-out: Ki CB1 (nM) (o/w PMSF)) is 96.4 nM; in experiment [1] (without PMSF (first value of cell), read-out: Ki CB1 (nM) (o/w PMSF)), 302 nM; in experiment [3] it was 185 nM. Further, the IC50 – broadly, the concentration that inhibits the measured activity by half – in experiment [2] (read-out: IC50 (AT inhib.)) was 16100 nM. 100 µM produced 16.8% inhibition in experiment [4].

Take `CCCCCN(C)C/C=C\C/C=C\C/C=C\C/C=C\CCCCNC(=O)c1ccc(O)cc1` [Compound A27]: the Ki in experiment [1] (with PMSF (second value of cell), read-out: Ki CB1 (nM) (o/w PMSFQ)) is 1620 nM; in experiment [1] (without PMSF (first value of cell), read-out: Ki CB1 (nM) (o/w PMSFQ)), 2220 nM; in experiment [3], 2560 nM. Also, in experiment [2] (read-out: IC50 AT inhibition), the half-inhibitory concentration (IC50) was found to be 7100 nM. Moreover, the “Mag-Lipase % Inhibition” value in experiment [4] was 4.2%.
